{"source": "PubChem BioAssay (NCI)", "assay_in_all_cases": "NCI-60 cell line screen, 48 h", "key": {"[1]": {"tested_on": "ACHN renal"}, "[2]": {"tested_on": "BT-549 breast"}, "[3]": {"tested_on": "CCRF-CEM leukemia"}, "[4]": {"tested_on": "DU-145 prostate"}, "[5]": {"tested_on": "HCT-15 colon"}, "[6]": {"tested_on": "IGROV1 ovarian"}, "[7]": {"tested_on": "KM12 colon"}, "[8]": {"tested_on": "M14 melanoma"}, "[9]": {"tested_on": "MDA-MB-435"}, "[10]": {"tested_on": "NCI-H23 lung"}, "[11]": {"tested_on": "NCI-H522 lung"}, "[12]": {"tested_on": "OVCAR-5 ovarian"}, "[13]": {"tested_on": "RPMI-8226 leukemia"}, "[14]": {"tested_on": "SF-295 CNS"}, "[15]": {"tested_on": "SN12C renal"}, "[16]": {"tested_on": "SNB-19 CNS"}, "[17]": {"tested_on": "SR leukemia"}, "[18]": {"tested_on": "U251 CNS"}, "[19]": {"tested_on": "OVCAR-4 ovarian"}, "[20]": {"tested_on": "SK-MEL-28 melanoma"}}, "note": "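Protocol summary: plate cells (96-well), add compound at 5 concentrations, incubate 48 h, interpolate endpoints linearly. The concentration for full growth arrest is given as TGI.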"}
{"smiles": "Oc1ccc(-c2nc3ccc(Cl)cc3s2)cc1", "values": [{"measurement": "TGI", "setting": "[1]", "value": "> 100", "unit": "µM"}, {"measurement": "TGI", "setting": "[2]", "value": 33.3, "unit": "µM"}, {"measurement": "TGI", "setting": "[3]", "value": 24.4, "unit": "µM"}, {"measurement": "TGI", "setting": "[4]", "value": 31.1, "unit": "µM"}, {"measurement": "TGI", "setting": "[5]", "value": 31.1, "unit": "µM"}, {"measurement": "TGI", "setting": "[6]", "value": 32.4, "unit": "µM"}, {"measurement": "TGI", "setting": "[7]", "value": 34.2, "unit": "µM"}, {"measurement": "TGI", "setting": "[8]", "value": "> 100", "unit": "µM"}, {"measurement": "TGI", "setting": "[9]", "value": 35.6, "unit": "µM"}, {"measurement": "TGI", "setting": "[10]", "value": 36.5, "unit": "µM"}, {"measurement": "TGI", "setting": "[11]", "value": 31.7, "unit": "µM"}, {"measurement": "TGI", "setting": "[12]", "value": 33, "unit": "µM"}, {"measurement": "TGI", "setting": "[13]", "value": 47.3, "unit": "µM"}, {"measurement": "TGI", "setting": "[14]", "value": 34.1, "unit": "µM"}, {"measurement": "TGI", "setting": "[15]", "value": 35.7, "unit": "µM"}, {"measurement": "TGI", "setting": "[16]", "value": 40.4, "unit": "µM"}, {"measurement": "TGI", "setting": "[17]", "value": 51.1, "unit": "µM"}, {"measurement": "TGI", "setting": "[18]", "value": 46.9, "unit": "µM"}]}
{"smiles": "CC(=O)C1CC[C@@H]2[C@H](CC[C@]3(C)[C@@H](O)CC[C@@H]23)[C@H]1C(=O)O", "note": "(stereo partly specified)", "values": [{"measurement": "TGI", "setting": "[2]", "value": "> 100", "unit": "µM"}, {"measurement": "TGI", "setting": "[3]", "value": "> 100", "unit": "µM"}, {"measurement": "TGI", "setting": "[5]", "value": "> 100", "unit": "µM"}, {"measurement": "TGI", "setting": "[6]", "value": "> 100", "unit": "µM"}, {"measurement": "TGI", "setting": "[7]", "value": "> 100", "unit": "µM"}, {"measurement": "TGI", "setting": "[8]", "value": "> 100", "unit": "µM"}, {"measurement": "TGI", "setting": "[9]", "value": "> 100", "unit": "µM"}, {"measurement": "TGI", "setting": "[10]", "value": "> 100", "unit": "µM"}, {"measurement": "TGI", "setting": "[11]", "value": "> 100", "unit": "µM"}, {"measurement": "TGI", "setting": "[19]", "value": "> 100", "unit": "µM"}, {"measurement": "TGI", "setting": "[12]", "value": "> 100", "unit": "µM"}, {"measurement": "TGI", "setting": "[13]", "value": "> 100", "unit": "µM"}, {"measurement": "TGI", "setting": "[14]", "value": "> 100", "unit": "µM"}, {"measurement": "TGI", "setting": "[20]", "value": "> 100", "unit": "µM"}, {"measurement": "TGI", "setting": "[16]", "value": "> 100", "unit": "µM"}, {"measurement": "TGI", "setting": "[17]", "value": "> 100", "unit": "µM"}, {"measurement": "TGI", "setting": "[18]", "value": "> 100", "unit": "µM"}]}
{"smiles": "COc1cc(C(O)(CC#N)c2cc3c(cc2Br)OCO3)cc(OC)c1OC", "note": "(stereo unspecified)", "values": [{"measurement": "TGI", "setting": "[1]", "value": "> 100", "unit": "µM"}, {"measurement": "TGI", "setting": "[2]", "value": "> 100", "unit": "µM"}, {"measurement": "TGI", "setting": "[3]", "value": "> 100", "unit": "µM"}, {"measurement": "TGI", "setting": "[4]", "value": "> 100", "unit": "µM"}, {"measurement": "TGI", "setting": "[6]", "value": "> 100", "unit": "µM"}, {"measurement": "TGI", "setting": "[7]", "value": 98.7, "unit": "µM"}, {"measurement": "TGI", "setting": "[8]", "value": 50.5, "unit": "µM"}, {"measurement": "TGI", "setting": "[9]", "value": 13.7, "unit": "µM"}, {"measurement": "TGI", "setting": "[10]", "value": "> 100", "unit": "µM"}, {"measurement": "TGI", "setting": "[19]", "value": "> 100", "unit": "µM"}, {"measurement": "TGI", "setting": "[12]", "value": "> 100", "unit": "µM"}, {"measurement": "TGI", "setting": "[13]", "value": "> 100", "unit": "µM"}, {"measurement": "TGI", "setting": "[14]", "value": "> 100", "unit": "µM"}, {"measurement": "TGI", "setting": "[20]", "value": "> 100", "unit": "µM"}, {"measurement": "TGI", "setting": "[15]", "value": "> 100", "unit": "µM"}, {"measurement": "TGI", "setting": "[16]", "value": 76.1, "unit": "µM"}, {"measurement": "TGI", "setting": "[18]", "value": "> 100", "unit": "µM"}]}
{"smiles": "CCCC(=O)Nc1cc(/C=C/C(=O)N2CC(CCl)c3c2cc(O)c2[nH]cc(C)c32)n(C)c1", "note": "(stereo unspecified)", "values": [{"measurement": "TGI", "setting": "[1]", "value": "< 2.5e-05", "unit": "µM"}, {"measurement": "TGI", "setting": "[2]", "value": 0.000504, "unit": "µM"}, {"measurement": "TGI", "setting": "[3]", "value": 0.000155, "unit": "µM"}, {"measurement": "TGI", "setting": "[4]", "value": 0.000817, "unit": "µM"}, {"measurement": "TGI", "setting": "[5]", "value": "> 0.196", "unit": "µM"}, {"measurement": "TGI", "setting": "[6]", "value": "> 0.25", "unit": "µM"}, {"measurement": "TGI", "setting": "[7]", "value": "> 0.25", "unit": "µM"}, {"measurement": "TGI", "setting": "[9]", "value": "< 2.5e-05", "unit": "µM"}, {"measurement": "TGI", "setting": "[10]", "value": "< 2.5e-05", "unit": "µM"}, {"measurement": "TGI", "setting": "[11]", "value": "< 2.5e-05", "unit": "µM"}, {"measurement": "TGI", "setting": "[19]", "value": 0.038, "unit": "µM"}, {"measurement": "TGI", "setting": "[12]", "value": 0.0286, "unit": "µM"}, {"measurement": "TGI", "setting": "[13]", "value": 0.00154, "unit": "µM"}, {"measurement": "TGI", "setting": "[14]", "value": "2.98e-05", "unit": "µM"}, {"measurement": "TGI", "setting": "[20]", "value": "> 0.25", "unit": "µM"}, {"measurement": "TGI", "setting": "[15]", "value": 0.000528, "unit": "µM"}, {"measurement": "TGI", "setting": "[16]", "value": 0.00608, "unit": "µM"}, {"measurement": "TGI", "setting": "[17]", "value": "> 0.14", "unit": "µM"}, {"measurement": "TGI", "setting": "[18]", "value": 0.0449, "unit": "µM"}]}
